The source of these data is patent US11691962B2 (eXIthera Pharmaceuticals, Inc., priority 2018, dated 2023).

The target of data set [1] is Factor XIa (Homo sapiens (Human), UniProt P03951). Briefly: Factor XIa enzyme inhibition assay (dose response, fluorogenic AMC substrate). Type of data set: biochemical. The conditions noted are these: read-out: hFXIa IC50. The method, boiled down: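 Fluorogenic progress curves (30 min, 1-min reads, 30° C) were recorded for 0.25 nM FXIa cleaving 50 μM Glp-Pro-Arg-AMC in Hepes pH 7.4 buffer with NaCl and Tween 20. Compounds were serially two-fold diluted, and IC50 was fitted with a Hill equation.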
Sequence of Factor XIa (P03951 388-625): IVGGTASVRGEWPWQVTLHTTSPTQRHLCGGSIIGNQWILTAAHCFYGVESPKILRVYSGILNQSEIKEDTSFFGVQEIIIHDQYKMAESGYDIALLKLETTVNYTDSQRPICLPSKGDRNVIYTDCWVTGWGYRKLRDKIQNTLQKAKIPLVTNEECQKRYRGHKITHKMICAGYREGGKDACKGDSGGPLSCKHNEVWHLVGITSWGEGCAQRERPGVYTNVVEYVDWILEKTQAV
Sequence of Factor XIa (P03951 19-387 partner): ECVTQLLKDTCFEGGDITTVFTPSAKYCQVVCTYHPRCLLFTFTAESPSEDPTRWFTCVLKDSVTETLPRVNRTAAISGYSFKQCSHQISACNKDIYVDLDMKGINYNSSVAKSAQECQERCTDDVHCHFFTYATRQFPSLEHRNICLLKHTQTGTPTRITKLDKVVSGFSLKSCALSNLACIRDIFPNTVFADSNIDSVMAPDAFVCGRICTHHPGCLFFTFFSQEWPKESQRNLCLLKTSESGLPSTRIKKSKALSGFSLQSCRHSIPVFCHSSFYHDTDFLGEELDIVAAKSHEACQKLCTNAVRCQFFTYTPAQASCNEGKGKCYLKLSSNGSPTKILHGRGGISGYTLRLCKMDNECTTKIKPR

For data set [2], the target named is Thrombin (Homo sapiens (Human), UniProt P00734). Briefly: Dose response assay for protease inhibitors: thrombin. The conditions noted are these: selectivity, thrombin over Factor XIa. Type of data set: biochemical. The method, boiled down:
(§1)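 Glp-Pro-Arg-AMC substrate (thrombin, trypsin) or Pro-Phe-Arg-AMC/Boc-Leu-Gly-Arg-AMC (Factor Xa), diluted to 100 μM, in 20 mM Hepes pH 7.4, 150 mM NaCl, 0.02% Tween 20; enzyme diluted to 0.5 nM before addition. Two-fold serial compound dilutions; kinetic reads at 30° C. Data yield IC50 and Kon.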

Data set [3] has as its system Trypsin. Nature of the data set: Dose response assay for protease inhibitors: trypsin. Type of data set: biochemical. The conditions noted are these: selectivity, trypsin over Factor XIa. The method, boiled down:
as §1

In data set [4] the target is Factor Xa (Homo sapiens (Human), UniProt P00742). Briefly: Dose response assay for protease inhibitors: Factor Xa. Type of data set: biochemical. The note with it: selectivity, Factor Xa over Factor XIa. In short, it runs like this: as §1
Sequence of Factor Xa (P00742 235-488): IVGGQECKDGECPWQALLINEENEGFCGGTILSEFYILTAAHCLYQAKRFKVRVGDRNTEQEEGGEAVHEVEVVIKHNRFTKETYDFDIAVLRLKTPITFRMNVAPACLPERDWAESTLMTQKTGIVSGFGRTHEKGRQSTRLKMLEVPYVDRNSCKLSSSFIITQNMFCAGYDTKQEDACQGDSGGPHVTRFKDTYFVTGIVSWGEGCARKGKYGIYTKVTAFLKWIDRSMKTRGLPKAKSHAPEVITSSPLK
Sequence of Factor Xa (P00742 41-179 partner): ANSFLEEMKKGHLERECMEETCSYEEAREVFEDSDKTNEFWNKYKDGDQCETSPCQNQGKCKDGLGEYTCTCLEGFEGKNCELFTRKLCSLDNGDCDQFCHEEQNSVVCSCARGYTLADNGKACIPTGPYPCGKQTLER
Data set [5] is described as follows: Caco-2 cell permeability assay. The note with it: human, 37° C.; for Papp A→B at 60 min, 10 μM: Caco-2, apical to basolateral; for Papp B→A at 40 min, 10 μM: Caco-2, basolateral to apical. Type of data set: in vitro ADME, human. The procedure: (§2) The following procedure was used to determine the ability of a test compound to cross Caco-2 cells (human intestinal epithelial cells derived from a colorectal adenocarcinoma). The cells were seeded at 1×10^5 cells/cm^2 in 96-well Multiscreen™ plates (Millipore). Permeability assays were performed with the cells at days 21-25 post-seeding. Cells are typically used for 15 consecutive passages in culture.
(§3) This assay can be performed in either the apical to basolateral (A-B) or basolateral to apical (B-A) direction. The test compound was prepared at 10 μM in HBSS-MES (pH 6.5) or HBSS-HEPES (pH 7.4) with a final DMSO concentration of 1%. The working solution was then centrifuged and the supernatant added to the donor side. The assay plate was incubated at 37° C. with gentle shaking for 60 min or 40 min for the A-B or B-A assay, respectively. Samples were aliquoted from the donor side at time zero and the end point, and from the receiver side at the end point.
(§4) Reference compounds, propranolol (highly permeable), labetalol (moderately permeable), ranitidine (poorly permeable), and colchicine (P-glycoprotein substrate) were included in each assay.
(§5) Samples are analyzed by HPLC-MS/MS using selected reaction monitoring. The HPLC system consists of a binary LC pump with autosampler, a C-18 column, and a gradient.
(§6) The apparent permeability coefficient (Papp) of the test compound (Equation 2) and its recovery (Equation 3) are calculated as follows:
(§7) [formula] wherein A is the surface area of the cell monolayer (0.11 cm^2), C is concentration of the test compound expressed as peak area, D denotes donor, and R is receiver. “0”, “mid,” and “end” denote time at zero, mid-point, and end of the incubation, respectively. Δt is the incubation time. V is the volume of the donor or receiver.
(§8) This is most likely due to non-specific binding or degradation.

The nature of data set [6]: Metabolic stability in dog hepatocytes. Type of data set: in vitro ADME. The note with it: pooled cryopreserved hepatocytes; beagle dog hepatocytes, 2 μM compound; read-out: Dog Hepatocyte Stability (t1/2). The procedure: The following procedure was used to determine the stability of test compounds in beagle dog hepatocytes in a 96-well plate format. The test compounds, including the controls, imipramine and 7-ethoxycoumarin, were dissolved at 10 mM in DMSO, followed by further 5-fold dilution with DMSO to 2 mM. Pooled cryopreserved beagle dog hepatocytes were thawed and transferred into complete medium. Cells were gently centrifuged (700 rpm for 5 min) and the pellet rinsed with KHB (Krebs Henseleit buffer). Cells were resuspended, counted using Trypan blue, and adjusted to 1 million cells/mL in KHB buffer. The 2 mM compound stock solutions were diluted 10-fold with acetonitrile, followed by a further 50-fold dilution with KHB buffer. 200 μL of these compound solutions were transferred to 96-well polypropylene assay plates and an equal volume of the hepatocyte solution was added and mixed to initiate the reaction (final assay concentrations were 2 μM compound and 500,000 cells/mL). Assay plates were incubated at 37° C. in 5% CO2 with gentle agitation. 50 μL aliquots were removed at multiple time points out to 180 minutes and quenched with 6 volumes of cold acetonitrile (containing 250 ng/mL of carbutamide and chrysin as internal standards) to terminate the reaction and precipitate protein. Quenched samples were maintained on ice. The quenched samples were centrifuged at 2000×g (3100 rpm) for 10 minutes at 4° C. 50 μL aliquots of the supernatants were removed and diluted with 100 μL Milli-Q water to reduce the % organic content prior to bioanalysis by LC-MS/MS. Peak areas corresponding to the test compound were recorded. The compound remaining was calculated by comparing the peak area at each time point to time zero. Data were analyzed and results were calculated using Microsoft Excel 2010.

Data set [7] in a line: Aqueous solubility in PBS by HPLC-UV/VIS. Type of data set: physicochemical. The conditions noted are these: PBS pH 7.4, 2% DMSO, 24 h at room temperature. The procedure: The following procedure was used to determine the aqueous solubility of a test compound in phosphate buffered saline (PBS-NaCl 137 mM, KCl 2.7 mM, Na2HPO4 8.1 mM, KH2PO4 1.5 mM, pH 7.4) in 96-well plate format by HPLC-UV/VIS analysis. The test compound was prepared at 200 μM in PBS from a 10 mM DMSO stock solution. The final DMSO concentration was 2%. The PBS buffer samples were mixed thoroughly followed by incubation at room temperature for 24 h. At the end of the incubation, the PBS buffer samples were centrifuged and supernatants analyzed by HPLC. The aqueous solubility (μM) of the test compound in PBS was determined by comparing the peak area of the principal peak in the calibration standard (200 μM) with the peak area of the corresponding peak in each of the PBS samples. The range of the assay was approximately 0.5 μM to 200 μM. The reference compounds used in each assay were metoprolol, rifampicin, ketoconazole, phenytoin, haloperidol, simvastatin, diethylstilbestrol, and tamoxifen ranking from fully soluble (200 μM) to poorly soluble (<1 μM).

The nature of data set [8]: Plasma protein binding by equilibrium dialysis. Type of data set: in vitro ADME. The conditions noted are these: both sexes, pH 7.4, pooled human plasma, 4 hours at 37° C., read-out: PPB (%). The procedure:
(§9) The following procedure was used to determine the plasma protein binding of a test compound in pooled plasma from human (mixed gender) via equilibrium dialysis in a 96-well plate format. The dialysate compartment was loaded with phosphate-buffered saline (pH 7.4) and the sample side was loaded with plasma spiked with the test compound at a concentration of 10 μM. After loading, samples were covered and incubated for 4 hours at 37° C. After incubation, each compartment was sampled, diluted with acetonitrile/buffer and centrifuged. The supernatants were analyzed by HPLC-MS/MS. The analyte peak areas obtained from HPLC-MS/MS analysis of each sample were used to calculate protein binding according to the following equation (Equation 4):
(§10) [formula] where: AREAp=Peak area of analyte in protein matrix; AREAb=Peak area of analyte in buffer.
(§11) The amount measured in the plasma compartment included both free and bound drug, while that on the buffer side represented free drug only; the differences were used to calculate the percentage plasma protein bound. Three reference compounds were tested in each assay: acebutolol, quinidine and warfarin.
(Equilibrium dialysis compares concentrations on both sides of a semipermeable membrane.)

The test system of data set [9] is Caco-2 cells. Nature of the data set: Caco-2 cell permeability assay. The note with it: Papp, 10 μM, 37° C. Type of data set: in vitro ADME, human. On the procedure:
as §2, §3, §4, §5, §6, §7, §8
For orientation: Passage across Caco-2 layers is used to estimate intestinal permeability.

Data set [10] concerns human plasma protein. Briefly: Plasma protein binding by equilibrium dialysis. The conditions noted are these: pooled human plasma, 10 μM, 4 hours at 37° C. Type of data set: in vitro ADME. The procedure: as §9, §10, §11

The term IC50 denotes the point on the concentration scale where inhibition reaches its midpoint. As a reminder, the Papp A→B is the apparent permeability from the apical to the basolateral side of a cell layer. Read a low Papp A→B as poor permeation. Broadly, the Papp B→A is the apparent permeability from the basolateral to the apical side of a cell layer. What is called solubility is the dissolved amount per volume that the medium holds. Higher therefore signals much dissolved substance.

`CC[C@@H](NC(=O)N1C(=O)[C@H](Cc2ccnc(N)c2)[C@H]1C(=O)N(C)c1ccsc1)c1ccccc1` [Compound 1-9, (2S,3R)-3-((2-aminopyridin-4-yl)methyl)-N2-(thiophen-3-yl)-N1-((R)-1-phenylpropyl)-N2-methyl-4-oxoazetidine-1,2-dicarboxamide]: in data set [1], the 50% inhibitory concentration (IC50) was less than 10 nM. In addition, the “Ratio: Thrombin/FXIa” value in data set [2] is on record as “H (“H” indicates 101-1000)”. The “Ratio: Trypsin/FXIa” value in [3] is on record as “G (“G” indicates 1-100)”. For the same compound, the “Ratio: FXa/FXIa” value in data set [4] was “H (“H” indicates 101-1000)”. Besides, in data set [5], the Papp A→B at 60 min, 10 μM is 11 to 30 ×10⁻⁶ cm/s and the apparent permeability from basolateral to apical (Papp B→A) at 40 min, 10 μM lay within 11 to 30 ×10⁻⁶ cm/s.
As to `CC[C@@H](NC(=O)N1C(=O)[C@H](Cc2ccnc(N)c2)[C@H]1C(=O)N(C)c1cnn(C)c1)c1cccc(Cl)c1` [Compound 1-11, (2S,3R)-3-((2-aminopyridin-4-yl)methyl)-N2-(1-methyl-1H-pyrazol-4-yl)-N1-((R)-1-(3-chlorophenyl)propyl)-N2-methyl-4-oxoazetidine-1,2-dicarboxamide], in data set [1], the IC50 was less than 10 nM. For the same compound, in [2], the “Ratio: Thrombin/FXIa” value is “H (“H” indicates 101-1000)”. The “Ratio: Trypsin/FXIa” value in [3] is recorded as “G (“G” indicates 1-100)”. Moreover, the “Ratio: FXa/FXIa” value in data set [4] is on record as “H (“H” indicates 101-1000)”. Also, in [5], the Papp A→B at 60 min, 10 μM was less than 10 ×10⁻⁶ cm/s and the Papp B→A at 40 min, 10 μM fell in the range of 11 to 30 ×10⁻⁶ cm/s.
For the compound `CC[C@@H](NC(=O)N1C(=O)[C@H](Cc2cc(C)nc(N)c2)[C@H]1C(=O)N(C)c1ccn(C)n1)c1ccccc1` [Compound 1-48, (2S,3R)-3-((2-amino-6-methylpyridin-4-yl)methyl)-N2-(1-methyl-1H-pyrazol-3-yl)-N1-((R)-1-phenylpropyl)-N2-methyl-4-oxoazetidine-1,2-dicarboxamide], the IC50 in data set [1] was less than 10 nM. The “Ratio: Thrombin/FXIa” value in [2] was “H (“H” indicates 101-1000)”. In addition, the “Ratio: Trypsin/FXIa” value in [3] is listed as “G (“G” indicates 1-100)”. In addition, in data set [4], the “Ratio: FXa/FXIa” value is reported as “I (“I” indicates > 500)”. Besides, the half-life at 2 μM in [6] is greater than 4 h.
Take `CC[C@@H](NC(=O)N1C(=O)[C@H](Cc2ccnc(N)c2)[C@H]1C(=O)N(C)c1nccn1C)c1cc(F)ccc1F` [Compound 1-84, (2S,3R)-3-((2-aminopyridin-4-yl)methyl)-N2-(1-methyl-1H-imidazol-2-yl)-N1-((R)-1-(2,5-difluorophenyl)propyl)-N2-methyl-4-oxoazetidine-1,2-dicarboxamide]: the IC50 in data set [1] is less than 10 nM. Also, the “Ratio: Thrombin/FXIa” value in [2] is on record as “H (“H” indicates 101-1000)”. For the same compound, the “Ratio: Trypsin/FXIa” value in data set [3] is reported as “G (“G” indicates 1-100)”. Moreover, the “Ratio: FXa/FXIa” value in data set [4] is on record as “I (“I” indicates > 500)”. In data set [5], this compound returned a Papp A→B at 60 min, 10 μM of less than 10 ×10⁻⁶ cm/s and a Papp B→A at 40 min, 10 μM of 11 to 30 ×10⁻⁶ cm/s. In addition, the solubility at 24 h in data set [7] (phosphate buffered saline, aqueous buffer, kinetic from dmso stock) was greater than 100 µM. In addition, the fraction unbound at 4 h, 10 μM in [8] was in the range of 0.1 to 0.5.
As to “(2S,3R)-3-((2-aminopyridin-4-yl)methyl)-N2-(1-methyl-1H-imidazol-2-yl)-N1-((R)-1-(3-fluorophenyl)propyl)-N2-methyl-4-oxoazetidine-1,2-dicarboxamide [Compound 1-79]”, the IC50 in data set [1] is less than 10 nM. Further, in data set [2], the “Ratio: Thrombin/FXIa” value was “H (“H” indicates 101-1000)”. In addition, the “Ratio: Trypsin/FXIa” value in data set [3] was “G (“G” indicates 1-100)”. Moreover, the “Ratio: FXa/FXIa” value in [4] was “I (“I” indicates > 500)”. In data set [9] (apical to basolateral, 60 min), the “Caco-2 Permeability (A-B)” value was “P (“P” indicates < 10 × 10^−6 cm/s)”. Further, in data set [9] (basolateral to apical, 40 min), the “Caco-2 Permeability (B-A)” value is listed as “Q (“Q” indicates 11-30 × 10^−6 cm/s)”. For the same compound, the “Aqueous Solubility (uM, in PBS)” value in [7] is “W (“W” indicates > 100 μM)”. The “PPB (%)” value in [10] is “Z (“Z” indicates 50-90%)”.
For “(2S,3R)-3-((2-aminopyridin-4-yl)methyl)-N2-(1-methyl-1H-imidazol-4-yl)-N1-((R)-1-cyclohexyl-2,2,2-trifluoroethyl)-N2-methyl-4-oxoazetidine-1,2-dicarboxamide [Compound 1-70]”, in data set [1], the IC50 was less than 10 nM. The “Ratio: Thrombin/FXIa” value in data set [2] was “G (“G” indicates 1-100)”. In addition, the “Ratio: Trypsin/FXIa” value in data set [3] is “G (“G” indicates 1-100)”. For the same compound, the “Ratio: FXa/FXIa” value in data set [4] is reported as “I (“I” indicates > 500)”.
As for “(2S,3R)-3-((2-aminopyridin-4-yl)methyl)-N2-(1-methyl-1H-pyrazol-3-yl)-N1-((S)-1-(3-chlorophenyl)ethyl)-N2-methyl-4-oxoazetidine-1,2-dicarboxamide [Compound 1-33]”, the IC50 in data set [1] was less than 10 nM. The “Ratio: Thrombin/FXIa” value in data set [2] is on record as “H (“H” indicates 101-1000)”. Moreover, the “Ratio: Trypsin/FXIa” value in data set [3] was “G (“G” indicates 1-100)”. Besides, the “Ratio: FXa/FXIa” value in data set [4] is on record as “H (“H” indicates 101-1000)”.
